Experimental data: patent US20080227655A1, “Assessment of effect of an agent on a human biological condition using rodent gene expression panels” (priority 2006, published 2008)
Where “and” joins values, the source holds several entries; their conditions need not be identical. Equal values may be shown once.

System: custom murine 40-gene Precision Profile for Rheumatoid Arthritis, whole blood
Experiment: Collagen Induced Arthritis (CIA) model, whole blood gene expression by QPCR, vehicle or dexamethasone treatment
Assay type: in vivo, male DBA/1 mice
Conditions: for Normalized CT (Delta CT) IL1RAP_M / Normalized CT (Delta CT) IL1RN—M / Normalized CT (Delta CT) IL6_M / Normalized CT (Delta CT) JUN_M / Normalized CT (Delta CT) MEF2C—M / Normalized CT (Delta CT) NFKB1—M / Normalized CT (Delta CT) PADI4—M / Normalized CT (Delta CT) PLA2G7—M / Normalized CT (Delta CT) PTPRC_M / Normalized CT (Delta CT) PTX3_M / Normalized CT (Delta CT) SER-PINE1_M / Normalized CT (Delta CT) TGFB1_M / Normalized CT (Delta CT) TIMP1_M / Normalized CT (Delta CT) TLR2_M / Normalized CT (Delta CT) TLR4_M / Normalized CT (Delta CT) TNFSF5—M / Normalized CT (Delta CT) TNF_M / Normalized CT (Delta CT) VEGF_M: whole blood
Protocol: Whole blood gene expression changes were evaluated in vehicle control and drug-treated murine subjects across two murine models of arthritis according to the following arthritis models:
KRN Transgenic Mouse (K/B×N): K/B×N serum from transgenic mouse used to induce arthritis in female BALB/c mice (n=54). Collagen Induced Arthritis (CIA): Bovine type II collagen used to induce arthritis in male DBA/1 mice (n=54).
In addition, naïve, untreated animal groups at baseline and terminal day were included to control for potential age-related changes in gene expression over the extended study periods. Animal groups, time-points, and treatment schedules are summarized in Tables 20A and 20B, respectively.
Whole blood samples from animals were collected by retro-orbital bleed at selected time-points in accordance with the arthritis study schemas described in […], and transferred into sample collection tubes containing a 1.5× lysis solution and RPMI. Samples were processed into total RNA and cDNA. […] It was anticipated from these murine models would provide a better understanding of the relevant molecular response of arthritis induction and their potential correlation to the human disease condition.
Normal murine subject reference values (represented as normalized Ct or ΔCt values) were established for male DBA/1 mice (n=6 for the CIA study arm) and female BALB/c mice (n=6 for the KRN study arm). In both arms of the study, gene expression response of normal (naïve, non-immunized and untreated) murine subjects were evaluated in groups of 6 each at day 0 and day 60 for the CIA study arm, and at day 0 and day 21 for the KRN study arm (see Tables 20A and 20B).
Gene expression responses for this arthritis-induced murine model were evaluated for untreated mice at day 24 and vehicle-treated mice at days 33, 42, and 60 to characterize disease progression.

[1] = CIA Day 33 Treated, group Average
[2] = CIA Day 33 Treated, individual mice
[3] = CIA Day 42 Treated, group Average

C[C@@H]1C[C@H]2[C@@H]3CCC4=CC(=O)C=C[C@]4(C)[C@@]3(F)[C@@H](O)C[C@]2(C)[C@@]1(O)C(=O)CO [Dexamethasone]
ABCA1_M Normalized CT Value (Delta CT), Average [1]: 17.98 | APAF1_M Normalized CT Value (Delta CT), Average [1]: 19.03 | ARG2_M Normalized CT Value (Delta CT), Average [1]: 17.82 | CASP1_M Normalized CT Value (Delta CT), Average [1]: 18.22 | CASP3_M Normalized CT Value (Delta CT), Average [1]: 17.75 | CCR3_M Normalized CT Value (Delta CT), Average [1]: 19.87 | CD8A_M Normalized CT Value (Delta CT), Average [1]: 18.74 | CD14_M Normalized CT Value (Delta CT), Average [1]: 17.29 | CD32_M Normalized CT Value (Delta CT), Average [1]: 18.45 | CD86_M Normalized CT Value (Delta CT), Average [1]: 22.19 | CSPG2_M Normalized CT Value (Delta CT), Average [1]: 18.04 | F3_M Normalized CT Value (Delta CT), Average [1]: 25.08 | HMOX1—M Normalized CT Value (Delta CT), Average [1]: 17.47 | HSPA1A—M Normalized CT Value (Delta CT), Average [1]: 19.62 | ICAM1—M Normalized CT Value (Delta CT), Average [1]: 18.84 | IFI16_M Normalized CT Value (Delta CT), Average [1]: 18.42 | IL1A_M Normalized CT Value (Delta CT), Average [1]: 24.44 | IL1B_M Normalized CT Value (Delta CT), Average [1]: 14.09 | IL10_M Normalized CT Value (Delta CT), Average [1]: 25.81 | Normalized CT (Delta CT) IL1RAP_M [1]: 17.96 | Normalized CT (Delta CT) IL1RN—M [1]: 17.38 | Normalized CT (Delta CT) IL6_M [1]: 23.95 | Normalized CT (Delta CT) JUN_M [1]: 19.37 | Normalized CT (Delta CT) MEF2C—M [1]: 18.84 | Normalized CT (Delta CT) NFKB1—M [1]: 16.55 | Normalized CT (Delta CT) PADI4—M [1]: 17.87 | Normalized CT (Delta CT) PLA2G7—M [1]: 14.85 | Normalized CT (Delta CT) PTPRC_M [1]: 13.58 | Normalized CT (Delta CT) PTX3_M [1]: 25.65 | Normalized CT (Delta CT) SER-PINE1_M [1]: 20.38 | Normalized CT (Delta CT) TGFB1_M [1]: 14.82 | Normalized CT (Delta CT) TIMP1_M [1]: 25.24 | Normalized CT (Delta CT) TLR2_M [1]: 17.70 | Normalized CT (Delta CT) TLR4_M [1]: 18.20 | Normalized CT (Delta CT) TNFSF5—M [1]: 21.06 | Normalized CT (Delta CT) TNF_M [1]: 19.71 | Normalized CT (Delta CT) VEGF_M [1]: 20.19 | ABCA1_M Normalized CT Value (Delta CT) [2]: 17.26 and 18.20 and 17.50 and 17.61 and 19.02 and 18.30 | APAF1_M Normalized CT Value (Delta CT) [2]: 18.67 and 19.22 and 18.56 and 19.02 and 19.62 and 19.07 | ARG2_M Normalized CT Value (Delta CT) [2]: 17.14 and 18.42 and 17.47 and 17.92 and 17.83 and 18.15 | CASP1_M Normalized CT Value (Delta CT) [2]: 17.29 and 18.41 and 17.98 and 18.58 and 18.74 and 18.31 | CASP3_M Normalized CT Value (Delta CT) [2]: 16.82 and 17.64 and 17.74 and 18.06 and 18.00 and 18.21 | CCR3_M Normalized CT Value (Delta CT) [2]: 18.36 and 19.59 and 19.88 and 20.33 and 20.88 and 20.15 | CD8A_M Normalized CT Value (Delta CT) [2]: 17.83 and 18.69 and 18.52 and 18.83 and 19.44 and 19.14 | CD14_M Normalized CT Value (Delta CT) [2]: 17.10 and 17.77 and 16.89 and 17.05 and 17.36 and 17.54 | CD32_M Normalized CT Value (Delta CT) [2]: 17.52 and 18.69 and 18.07 and 18.17 and 19.57 and 18.71 | CD86_M Normalized CT Value (Delta CT) [2]: 21.71 and 22.43 and 21.83 and 21.99 and 22.92 and 22.26 | CSPG2_M Normalized CT Value (Delta CT) [2]: 17.33 and 18.26 and 17.36 and 18.91 and 17.94 and 18.42 | F3_M Normalized CT Value (Delta CT) [2]: 23.01 and 25.60 and 26.10 and 25.22 and 24.87 and 25.67 | HMOX1—M Normalized CT Value (Delta CT) [2]: 16.95 and 17.50 and 17.08 and 17.53 and 17.80 and 17.98 | HSPA1A—M Normalized CT Value (Delta CT) [2]: 18.80 and 20.04 and 19.25 and 20.03 and 19.32 and 20.30 | ICAM1—M Normalized CT Value (Delta CT) [2]: 18.16 and 19.11 (2×) and 18.33 and 19.33 and 19.01 | IFI16_M Normalized CT Value (Delta CT) [2]: 17.31 and 18.37 and 18.29 and 18.56 and 18.70 and 19.31 | IL1A_M Normalized CT Value (Delta CT) [2]: 24.58 and 24.31 | IL1B_M Normalized CT Value (Delta CT) [2]: 13.46 and 14.53 and 13.95 and 14.00 and 14.32 and 14.27 | IL10_M Normalized CT Value (Delta CT) [2]: 25.17 and 25.58 and 26.12 and 26.14 and 25.77 and 26.06 | Normalized CT (Delta CT) IL1RAP_M [2]: 17.64 (2×) and 18.18 and 17.83 and 18.26 and 18.20 | Normalized CT (Delta CT) IL1RN—M [2]: 16.72 and 17.84 and 17.10 and 17.67 and 17.23 and 17.73 | Normalized CT (Delta CT) IL6_M [2]: 23.19 and 24.14 and 23.12 and 24.21 and 24.22 and 24.83 | Normalized CT (Delta CT) JUN_M [2]: 18.61 and 19.69 and 19.28 and 19.18 and 19.87 and 19.60 | Normalized CT (Delta CT) MEF2C—M [2]: 18.46 and 19.03 and 18.51 and 18.82 and 19.65 and 18.56 | Normalized CT (Delta CT) NFKB1—M [2]: 15.81 and 16.66 and 16.35 and 16.51 and 17.38 and 16.63 | Normalized CT (Delta CT) PADI4—M [2]: 17.79 and 18.22 and 17.82 and 17.94 and 17.90 and 17.58 | Normalized CT (Delta CT) PLA2G7—M [2]: 14.49 and 15.12 and 14.67 and 15.01 and 15.09 and 14.74 | Normalized CT (Delta CT) PTPRC_M [2]: 13.01 and 13.82 and 13.27 and 13.81 and 14.11 and 13.46 | Normalized CT (Delta CT) PTX3_M [2]: 25.66 and 25.46 and 25.62 and 25.86 and 26.01 and 25.32 | Normalized CT (Delta CT) SER-PINE1_M [2]: 20.09 and 20.42 and 20.70 and 20.01 and 20.26 and 20.78 | Normalized CT (Delta CT) TGFB1_M [2]: 14.47 and 14.92 and 14.68 and 14.99 and 14.96 and 14.87 | Normalized CT (Delta CT) TIMP1_M [2]: 25.48 and 25.27 and 25.34 and 25.05 and 25.73 and 24.56 | Normalized CT (Delta CT) TLR2_M [2]: 17.23 and 17.92 and 17.46 and 17.97 and 17.84 and 17.81 | Normalized CT (Delta CT) TLR4_M [2]: 17.72 and 18.52 and 18.24 and 18.23 and 18.30 and 18.16 | Normalized CT (Delta CT) TNFSF5—M [2]: 20.24 and 21.35 and 20.73 and 21.36 and 21.76 and 20.95 | Normalized CT (Delta CT) TNF_M [2]: 18.97 and 20.16 and 19.24 and 19.56 and 20.34 and 20.01 | Normalized CT (Delta CT) VEGF_M [2]: 19.55 and 20.59 and 19.74 and 20.04 and 21.29 and 19.96 | ABCA1_M Normalized CT Value (Delta CT), Average [3]: 19.35 | APAF1_M Normalized CT Value (Delta CT), Average [3]: 19.60 | ARG2_M Normalized CT Value (Delta CT), Average [3]: 17.90 | CASP1_M Normalized CT Value (Delta CT), Average [3]: 18.55 | CASP3_M Normalized CT Value (Delta CT), Average [3]: 18.07 | CCR3_M Normalized CT Value (Delta CT), Average [3]: 19.53 | CD8A_M Normalized CT Value (Delta CT), Average [3]: 19.66 | CD14_M Normalized CT Value (Delta CT), Average [3]: 17.57
